Source: US7589220B2, “Inhibitors of the anandamide transporter” (priority 1998, dated 2009)
Like-named read-outs stand apart in the source and are kept apart here.

Assays:
anandamide transporter [1] = assay: substrate translocation of radioactively labeled analogs (FIGS. 1 and 2); type: cell-based; design: dose or concentration left out as unconfirmed; details: radioactively labeled compounds
anandamide transporter [2] = assay: [3H]anandamide competition assay using a high throughput method; type: cell-based, human
anandamide transporter [3] = assay: [3H]anandamide accumulation in cortical astrocytes in culture; type: cell-based, rat; details: for effect on [3H]anandamide accumulation: cortical astrocytes; for prevention of the temperature-sensitive component of [3H]anandamide accumulation: cortical astrocytes in culture
PGE2 carrier = assay: [3H]PGE2 accumulation in neurons or astrocytes; type: cell-based
Source text: The bromcresol green, which blocks PGE2 transport, raised the question of whether anandamide accumulation occurred by means of a PGE2 carrier. That this is not the case was shown by the lack of [^3H]PGE2 accumulation in neurons or astrocytes and by the inability of PGE2 to interfere with [^3H]anandamide accumulation.

anandamide transporter [4] = assay: [3H]anandamide accumulation in neurons; type: cell-based, rat
rat cerebral membranes = target: T1, rat cerebral membranes (Rattus norvegicus, UniProt P20272); assay: binding of [3H]WIN-55212-2 to rat cerebral membranes
T1 construct: from tissue; host or cells: rat cerebral membranes

astrocytes [5] = assay: uptake of [3H]ethanolamine in astrocytes; type: cell-based
astrocytes [6] = assay: uptake of [3H]arachidonate in astrocytes; type: cell-based
[7] = Table I, affinity for ligand recognition by the anandamide transporter
[8] = read-out: IC50 (AT inhib.) μM), Table II, anandamide transporter inhibition
[9] = Table II, anandamide transporter inhibition, read-out: IC50 (AT inhib.) μM)
[10] = astrocytes, single high-affinity component

T1 sequence (P20272 whole entry): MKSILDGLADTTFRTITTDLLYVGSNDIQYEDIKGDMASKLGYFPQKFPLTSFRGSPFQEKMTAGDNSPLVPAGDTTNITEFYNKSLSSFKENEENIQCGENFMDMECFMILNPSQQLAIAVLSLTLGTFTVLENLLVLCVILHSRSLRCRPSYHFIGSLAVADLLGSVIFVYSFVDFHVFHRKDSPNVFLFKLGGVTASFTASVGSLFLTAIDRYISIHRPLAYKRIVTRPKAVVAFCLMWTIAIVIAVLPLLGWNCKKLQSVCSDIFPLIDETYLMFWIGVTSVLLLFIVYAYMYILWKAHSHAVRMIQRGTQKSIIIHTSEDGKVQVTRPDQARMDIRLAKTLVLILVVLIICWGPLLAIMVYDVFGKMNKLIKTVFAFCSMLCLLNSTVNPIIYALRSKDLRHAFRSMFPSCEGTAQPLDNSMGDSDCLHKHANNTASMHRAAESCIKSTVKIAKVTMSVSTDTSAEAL

CCCCC/C=C\C/C=C\C/C=C\C/C=C\CCCC(=O)Nc1ccc(O)cc1 [AM404, N-(4-hydroxyphenyl)arachidonamide, reference compound]
transport (translocation) compared with [3H]anandamide (anandamide transporter [1]): transported as rapidly and effectively as

CCCCC/C=C\C/C=C\C/C=C\C/C=C\CCCNC(=O)c1ccc(O)cc1 [AM1172]
transport (translocation) compared with [3H]anandamide (anandamide transporter [1]): transported as rapidly and effectively as
IC50 (anandamide transporter [2]; [7]): 2 µM

CCCCC/C=C\C/C=C\C/C=C\C/C=C\CCCCNC(=O)C(C)C [AM1177]
transport (translocation) compared with [3H]anandamide (anandamide transporter [1]): transported as rapidly and effectively as
IC50 (anandamide transporter [2]; [7]): 5 µM

CCCCC/C=C\C/C=C\C/C=C\C/C=C\CCCC(=O)OC1COC(c2ccccc2)OC1 (centres unmarked) [AM1191]
transport (translocation) compared with [3H]anandamide (anandamide transporter [1]): transported as rapidly and effectively as
IC50 (anandamide transporter [2]; [7]): 0.8 µM

CCCCCC=CCC=CCC=CCC=CCCCCOC(=O)NC(C)CO (centres unmarked) [Compound 1]
IC50 (anandamide transporter [2]; [8]): 7.1 µM

CCCCCC=CCC=CCC=CCC=CCCCCOC(=O)NC(C)CO (centres unmarked) [Compound 2]
IC50 (anandamide transporter [2]; [8]): 6.4 µM

CCCCCC=CCC=CCC=CCC=CCCCCOC(=O)NCC(C)O (centres unmarked) [Compound 3]
IC50 (anandamide transporter [2]; [8]): 1.5 µM

CCCCCC=CCC=CCC=CCC=CCCCCOC(=O)NCC(C)O (centres unmarked) [Compound 4]
IC50 (anandamide transporter [2]; [8]): 0.4 µM

CCCCCC=CCC=CCC=CCC=CCCCCOC(=O)NC(C)C [Compound 5]
IC50 (anandamide transporter [2]; [8]): 21.9 µM

CCCCCC=CCC=CCC=CCC=CCCCCOC(=O)NC1CC1 [Compound 6]
IC50 (anandamide transporter [2]; [8]): 15.5 µM

CCCCCC=CCC=CCC=CCC=CCCCCOC(=O)NC1CCC1 [Compound 7]
IC50 (anandamide transporter [2]; [8]): 15.5 µM

CCCCCC=CCC=CCC=CCC=CCCCCOC(=O)NC1CCCCC1 [Compound 8]
IC50 (anandamide transporter [2]; [8]): 33 µM

CCCCCC=CCC=CCC=CCC=CCCCCOC(=O)Nc1ccc(O)cc1 [Compound 9]
IC50 (anandamide transporter [2]; [8]): 6.6 µM

CCCCCC=CCC=CCC=CCC=CCCCCOC(=O)NC1=NCCS1 [Compound 10]
IC50 (anandamide transporter [2]; [9]): 8.6 µM

CCCCCC=CCC=CCC=CCC=CCCCCOC(=O)Nc1cccnc1 [Compound 11]
IC50 (anandamide transporter [2]; [8]): 16.1 µM

CCCCCC=CCC=CCC=CCC=CCCCCNC(=O)NCC(C)O (centres unmarked) [Compound 12]
IC50 (anandamide transporter [2]; [8]): 1.78 µM

CCCCCC=CCC=CCC=CCC=CCCCCNC(=O)OCC(C)O (centres unmarked) [Compound 16]
IC50 (anandamide transporter [2]; [8]): 3.29 µM

CCCCC/C=C\C/C=C\C/C=C\C/C=C\CCCC(=O)Nc1nccs1 [Compound 17]
IC50 (anandamide transporter [2]; [9]): 1.7 µM

CCCCC/C=C\C/C=C\C/C=C\C/C=C\CCCC(=O)NC1=NCCS1 [Compound 18]
IC50 (anandamide transporter [2]; [9]): 2.8 µM

CCCCC/C=C\C/C=C\C/C=C\C/C=C\CCCC(=O)Nc1nncs1 [Compound 19]
IC50 (anandamide transporter [2]; [9]): 1.5 µM

CCCCC/C=C\C/C=C\C/C=C\C/C=C\CCCC(=O)Nc1nc2ccccc2s1 [Compound 20]
IC50 (anandamide transporter [2]; [9]): 44.2 µM

CCCCC/C=C\C/C=C\C/C=C\C/C=C\CCCC(=O)Nc1nc(Br)cs1 [Compound 21]
IC50 (anandamide transporter [2]; [9]): 92.3 µM

CCCCC/C=C\C/C=C\C/C=C\C/C=C\CCCC(=O)Nc1ncc([N+](=O)[O-])s1 [Compound 22]
IC50 (anandamide transporter [2]; [9]): 14.1 µM

CCCCC/C=C\C/C=C\C/C=C\C/C=C\CCCC(=O)Nc1nc(C)cs1 [Compound 23]
IC50 (anandamide transporter [2]; [9]): 11.2 µM

CCCCC/C=C\C/C=C\C/C=C\C/C=C\CCCC(=O)Nc1nc(C)c(C)s1 [Compound 24]
IC50 (anandamide transporter [2]; [9]): 26 µM

CCCCC/C=C\C/C=C\C/C=C\C/C=C\CCCC(=O)Nc1nc(C(C)(C)C)cs1 [Compound 25]
IC50 (anandamide transporter [2]; [9]): 24.1 µM

CCCCC[C@H](O)/C=C/[C@H]1[C@H](O)CC(=O)[C@@H]1C/C=C\CCCC(=O)O [PGE2, prostaglandin E2]
interference with [3H]anandamide accumulation (anandamide transporter [3]): inability
accumulation of [3H]PGE2 (PGE2 carrier): lack

Cc1c(C(=O)NN2CCCCC2)nn(-c2ccc(Cl)cc2Cl)c1-c1ccc(Cl)cc1.Cl [SR-141716-A]
displacement of the higher affinity component of [3H]anandamide accumulation (anandamide transporter [4]; neurons, 100 nM): displaced
effect on [3H]anandamide accumulation (anandamide transporter [3]; 10 μM): no effect

Cc1c(C(=O)c2cccc3ccccc23)c2cccc3c2n1[C@H](CN1CCOCC1)CO3 [WIN-55212-2]
effect on [3H]anandamide accumulation (anandamide transporter [3]; 1 μM): no effect

CCCCC/C=C\C/C=C\C/C=C\C/C=C\CCCC(=O)NCCO [anandamide, Arachidonyl ethanolamide]
time to reach 50% of maximum accumulation (anandamide transporter [4]; neurons and astrocytes): about four
Vmax (anandamide transporter [4]; neurons, higher affinity component): 5.9 pmol/min per milligram of protein
Km (anandamide transporter [4]; neurons, higher affinity component, read-out: Km): 0.032 µM
maximum accumulation rate, Vmax (anandamide transporter [4]; neurons, lower affinity component): 90.9 pmol/min per milligram of protein
Km (anandamide transporter [4]; neurons, lower affinity component, read-out: Michaelis constant, Km): 1.2 µM
Km (anandamide transporter [3]; [10]): 0.32 µM
Vmax (anandamide transporter [3]; [10]): 171 pmol/min per milligram of protein
prevention of the temperature-sensitive component of [3H]anandamide accumulation (anandamide transporter [3]): prevented

Cc1c(C2(c3cc(Br)c(O)c(Br)c3C)OS(=O)(=O)c3ccccc32)cc(Br)c(O)c1Br [bromcresol green]
mode of inhibition of [3H]anandamide accumulation (anandamide transporter [4]; neurons and astrocytes): noncompetitively
effect on the binding of [3H]WIN-55212-2 (rat cerebral membranes): no significant effect
effect on uptake of [3H]ethanolamine (astrocytes [5]): no significant effect
effect on uptake of [3H]arachidonate (astrocytes [6]): no significant effect

CCCCCCCCCCCCCCCC(=O)NCCO [palmitoyl ethanolamide]
prevention of the temperature-sensitive component of [3H]anandamide accumulation (anandamide transporter [3]): not
